System: L-arginine deiminase (ADI)
Assay: Lineweaver-Burk plot; ammonia release with Nessler's reagent
Assay type: biochemical, Penicillium chrysogenum
Settings: free enzyme; pH and temperature of the kinetic assay not given

In the case of `N=C(N)NCCC[C@H](N)C(=O)O` [L-arginine], the Km is reported as 760 µM.
